Measurements published in patent US11541050B2, “Pyrimidine derivatives for the treatment of viral infections” (JANSSEN SCIENCES IRELAND UC, priority 2011, dated 2023).

Columns and labels:
[1] = target: T1, human TLR7 (wild type sequence) (Homo sapiens, UniProt Q9NYK1); experiment: TLR7 cellular NFκB-luc reporter assay, wild type TLR7; type: cell-based; design: unit not given here; conditions: lowest effective concentration, wild type TLR7 (compounds 74 onward)
T1 construct: expressed in transfected cells; host or cells: HEK293
T1 sequence (Q9NYK1 27-1049): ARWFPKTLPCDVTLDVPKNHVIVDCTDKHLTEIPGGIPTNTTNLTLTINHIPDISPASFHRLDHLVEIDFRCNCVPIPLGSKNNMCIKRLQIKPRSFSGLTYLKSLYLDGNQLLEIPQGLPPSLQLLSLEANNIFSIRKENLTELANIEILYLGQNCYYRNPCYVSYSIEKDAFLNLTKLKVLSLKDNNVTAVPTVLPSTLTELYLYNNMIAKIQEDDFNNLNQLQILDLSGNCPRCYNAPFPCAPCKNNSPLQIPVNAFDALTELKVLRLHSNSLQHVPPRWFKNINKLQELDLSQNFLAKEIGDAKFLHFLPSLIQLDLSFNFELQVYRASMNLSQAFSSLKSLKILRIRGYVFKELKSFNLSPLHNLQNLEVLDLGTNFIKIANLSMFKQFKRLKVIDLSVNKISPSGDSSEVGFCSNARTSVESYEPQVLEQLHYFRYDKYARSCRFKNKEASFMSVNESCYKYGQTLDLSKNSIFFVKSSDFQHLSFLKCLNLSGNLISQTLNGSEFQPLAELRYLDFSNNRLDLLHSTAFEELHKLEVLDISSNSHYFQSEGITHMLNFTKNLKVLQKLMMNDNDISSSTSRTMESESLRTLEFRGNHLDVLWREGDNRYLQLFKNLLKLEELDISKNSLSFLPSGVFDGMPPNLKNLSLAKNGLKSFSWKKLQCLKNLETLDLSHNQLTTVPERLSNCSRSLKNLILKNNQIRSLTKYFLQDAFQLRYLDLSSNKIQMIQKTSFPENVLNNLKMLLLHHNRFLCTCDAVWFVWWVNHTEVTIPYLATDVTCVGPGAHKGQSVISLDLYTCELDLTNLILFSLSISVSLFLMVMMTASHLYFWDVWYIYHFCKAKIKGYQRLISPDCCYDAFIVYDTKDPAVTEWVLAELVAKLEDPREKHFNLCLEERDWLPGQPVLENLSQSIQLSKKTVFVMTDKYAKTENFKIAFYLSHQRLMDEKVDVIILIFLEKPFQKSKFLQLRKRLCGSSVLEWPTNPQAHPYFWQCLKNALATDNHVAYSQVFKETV
How it was run: (§1)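 HEK293 cells transiently co-transfected (48 h, 37 °C) with CMV-TLR7 or TLR8 plasmid (wild type or second-LRR deletion mutant) plus NFκB-luc reporter. Cells exposed to compound for 6 h at 37 °C, 5% CO2; luciferase read-out. LEC from quadruplicate dose-response curves: concentration giving effect at least two fold above assay standard deviation.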

[2] = target: T2, human TLR8 (wild type sequence) (Homo sapiens, UniProt Q9NR97); experiment: TLR8 cellular NFκB-luc reporter assay, wild type TLR8; type: cell-based; design: unit not given here; conditions: lowest effective concentration, wild type TLR8 (compounds 74 onward)
T2 construct: expressed in transfected cells; host or cells: HEK293
T2 sequence (Q9NR97 27-1041): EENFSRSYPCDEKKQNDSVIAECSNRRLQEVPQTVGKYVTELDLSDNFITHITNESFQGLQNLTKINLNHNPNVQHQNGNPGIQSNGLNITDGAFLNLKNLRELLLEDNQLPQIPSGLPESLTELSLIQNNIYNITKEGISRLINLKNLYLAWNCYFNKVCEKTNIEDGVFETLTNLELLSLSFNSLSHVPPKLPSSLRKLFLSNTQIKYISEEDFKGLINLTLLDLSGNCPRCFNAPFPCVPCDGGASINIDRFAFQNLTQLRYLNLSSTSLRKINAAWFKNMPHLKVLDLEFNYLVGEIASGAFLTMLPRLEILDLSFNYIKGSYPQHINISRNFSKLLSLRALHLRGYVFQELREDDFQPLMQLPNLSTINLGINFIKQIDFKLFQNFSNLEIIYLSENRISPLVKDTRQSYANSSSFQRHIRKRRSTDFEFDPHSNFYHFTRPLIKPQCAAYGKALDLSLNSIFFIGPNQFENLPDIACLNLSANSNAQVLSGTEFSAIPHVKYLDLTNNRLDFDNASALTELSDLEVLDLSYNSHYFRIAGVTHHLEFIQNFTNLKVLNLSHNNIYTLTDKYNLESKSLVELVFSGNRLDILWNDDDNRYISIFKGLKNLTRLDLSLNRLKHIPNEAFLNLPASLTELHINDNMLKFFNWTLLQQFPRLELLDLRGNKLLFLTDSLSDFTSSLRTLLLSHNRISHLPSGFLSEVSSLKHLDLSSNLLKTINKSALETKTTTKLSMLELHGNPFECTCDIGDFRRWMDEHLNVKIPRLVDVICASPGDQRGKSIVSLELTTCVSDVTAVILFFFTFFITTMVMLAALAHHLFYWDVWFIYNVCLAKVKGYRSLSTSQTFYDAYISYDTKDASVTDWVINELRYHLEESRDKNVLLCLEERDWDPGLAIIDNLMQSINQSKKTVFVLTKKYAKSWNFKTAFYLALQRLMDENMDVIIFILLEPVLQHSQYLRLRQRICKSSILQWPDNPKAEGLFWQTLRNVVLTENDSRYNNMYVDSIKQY
How it was run: as §1

[3] = tested on: HCV replicon in Huh-7 luc/neo cells; experiment: Suppression of HCV replicon replication by conditioned media from compound-treated PBMC; type: cell-based, HCV type 1 b; conditions: Hepatitis C virus; conditioned media from compound-treated PBMC on Huh-7 luc/neo replicon cells (compounds 74 onward); read-out: PBMC HUH-7 EC50
Protocol: Activation of human TLR7 results in robust production of interferon by plasmacytoid dendritic cells present in human blood. The potential of compounds to induce interferon was evaluated by looking at the antiviral activity in the HCV replicon system upon incubation with conditioned media from peripheral blood mononuclear cells (PBMC). […] The assay utilized the stably transfected cell line Huh-7 luc/neo harboring an RNA encoding a bicistronic expression construct comprising the wild type NS3-NS5B regions of HCV type 1 b translated from an Internal Ribosome Entry Site (IRES) from encephalomyocarditis virus (EMCV), preceded by a reporter gene (Firefly-luciferase) and a selectable marker gene (neoR, neomycine phosphotransferase). The construct is flanked by 5′ and 3′ NTRs (non-translated regions) from HCV type 1 b. Continued culture of the replicon cells in the presence of G418 (neoR) is dependent on the replication of the HCV RNA. The stably transfected replicon cells that replicate HCV RNA autonomously and to high levels, encoding inter alia luciferase, were used for profiling of the conditioned cell culture media.
Briefly, PBMCs were prepared from buffy coats of at least two donors using a standard Ficoll centrifugation protocol. Isolated PBMCs were resuspended in RPMI medium supplemented with 10% human AB serum and 2×10^5 cells/well were dispensed into 384-well plates containing compounds (70 μL total volume). After overnight incubation, 10 μL of supernatant was transferred to 384-well plates containing 2.2×10^3 replicon cells/well in 30 μL (plated the day before). Following 24 hours of incubation, replication was measured by assaying luciferase activity using 40 μL/well Steady Lite Plus substrate (Perkin Elmer) and measured with ViewLux ultraHTS microplate imager (Perkin Elmer). […] Recombinant interferon α-2a (Roferon-A) was used as a standard control compound.

SMILES	TLR 7 wt LEC [1]	TLR 8 wt LEC [2]	EC50 [3]
CCCCNc1nc(N)ncc1OCCOc1ccc(C(=O)OC)cc1OC [Compound 132]	1.470	>25	634 nM
CCCCNc1nc(N)ncc1OCCOc1cc(OC)c(OC)c(OC)c1 [Compound 133]	1.500	3.090	585 nM
CCCCNc1nc(N)ncc1OCCOc1ccc(C(=O)OC)c(OC)c1 [Compound 134]	2.010	2.110	935 nM
CCCCNc1nc(N)ncc1OCCOc1ccc(C(F)(F)F)cc1 [Compound 135]	3.230	1.970	3190 nM
CCCCNc1nc(N)ncc1OCCOc1ccnc2ccsc12 [Compound 136]	2.000	2.030	275 nM
CCCCNc1nc(N)ncc1OCc1cccc(CC(=O)OC)c1 [Compound 137]	0.757	1.760	22800 nM
CCCCNc1nc(N)ncc1OCc1cccc2c1OCCCO2 [Compound 138]	1.040	1.050	570 nM
CCCCNc1nc(N)ncc1OCc1nccc(OCC(F)(F)F)c1C [Compound 139]	0.025	0.286	9 nM
CCCCNc1nc(N)ncc1OCCOc1ccc(OC)c(OC)c1 [Compound 140]	0.617	2.250	175 nM
CCCCNc1nc(N)ncc1OCCOc1ccnc2cc(OC)ccc12 [Compound 141]	4.360	0.704	733 nM
CCCCNc1nc(N)ncc1OCCOc1cc(C(C)C)nc2cc(OC)ccc12 [Compound 142]	>25	2.370	19700 nM
CCCCNc1nc(N)ncc1OCCOc1cccnc1 [Compound 143]	1.810	0.880	443 nM
CCCCNc1nc(N)ncc1OCCn1ccc(=O)c2ccc(OC)cc21 [Compound 144]	13.010	20.790	1320 nM
CCCC[C@H](CCO)Nc1nc(N)ncc1OCc1ccccc1 [Compound 145]	2.140	1.920	632 nM
CCCCNc1nc(N)ncc1OCCCc1cccc(OC)c1 [Compound 146]	1.230	2.300	707 nM
CCCCNc1nc(N)ncc1OCCCc1cc(OC)cc(OC)c1 [Compound 147]	2.520	4.340	746 nM
CCCCNc1nc(N)ncc1OCCCc1cc(OC)ccc1OC [Compound 148]	0.691	4.850	634 nM
CCCCNc1nc(N)ncc1OCCCc1ccccc1OC [Compound 149]	2.080	5.850	703 nM
CCCCNc1nc(N)ncc1OCCCc1cccc(OC)c1OC [Compound 150]	1.180	4.310	689 nM
CCCCNc1nc(N)ncc1OCCCc1ccc2c(c1)OCO2 [Compound 151]	0.431	1.860	188 nM
CCCCNc1nc(N)ncc1OCCCc1ccc(Cl)cc1Cl [Compound 152]	5.410	>25	3350 nM
CCCC[C@@H](CO)Nc1nc(N)ncc1OCCCc1ccccc1 [Compound 154]	3.710	2.960	3020 nM
CCCCNc1nc(N)ncc1OCc1nc(-c2ccccc2)no1 [Compound 155]	2.660	4.560	3440 nM
CCCCNc1nc(N)ncc1OCc1noc(-c2ccccc2)n1 [Compound 156]	0.828	2.060	697 nM
CCCCNc1nc(N)ncc1OCc1cc2ccccc2n(CCC(C)C)c1=O [Compound 158]	3.080	>25	3310 nM
CCCCNc1nc(N)ncc1OCc1cc2c(cn1)[nH]c1ccccc12 [Compound 159]	0.159	1.080	18 nM
